≈ marks a conversion by molar mass, not a printed value.
Tests used:
[1] = system: Methicillin resistant S. aureus ATCC 33591; experiment: MIC determination, MRSA; assay type: cell-based, Staphylococcus aureus; details: MRSA ATCC 33591, 24 h; for MIC: Staphylococcus aureus
Method: (§1) Susceptibility testing for bacterial cultures is performed according to the National Council for Clinical Laboratory Standards (NCCLS) protocol M100-S12, “Performance Standards for Antimicrobial Susceptibility Testing.” The bacterial strains recommended by NCCLS were obtained from the American Type Culutre Collection (ATCC) (Table) and were maintained on Mueller Hinton (MHA) agar plates plus or minus 3% lysed horse blood (see Table). The bacteria were grown in Cation adjusted Mueller Hinton Broth (CaMHB) for liquid growth and susceptibility testing. S. cerevisiae (yeast) is grown in yeast peptone dextrose (YPD) media.
(§2) All bacterial cultures were grown at 37 degrees Celsius. Fresh colonies of S. aureus and MRSA were inoculated into liquid media and grown overnight and diluted the next day to grow to mid-log (Table 2). E. faecalis and S. pneumonia mid-log cultures were started directly from colony on plates. To attain mid-log growth, cultures were grown to an optical density (OD) at A590 of 0.2-0.8 (see Table 2) and then diluted to proper OD to obtain 5×10^5 cells/mL.
(§3) Diluted bacterial cultures are added to compound plates with compound diluted 2-fold from 100 μg/mL to 0.2 μg/mL final concentration in DMSO. Control antibiotics are also added: vancomycin, linezolid, and penicillin. In 384 well plates, 0.5 μL compound is added followed by addition of 50 μL of culture. DMSO alone is included as a control. Plates incubated at 37 degrees Celsius for 17-24 h.
(§4) Plates with cells mixed with compounds are incubated for 17 h for S. aureus and yeast, 24 h for MRSA, and all Enterococcus and Streptococcus strains. Yeast plates are incubated […].
(§5) Viability is determined by reading plates at A590 to determine optical density of treated and untreated cells and determining growth inhibition relative to controls.

[2] = system: Streptococcus pneumonia ATCC 49619; experiment: MIC determination, S. pneumonia; assay type: cell-based; details: for MIC S. pneuomiae: ATCC 49619, 24 h; for MIC: Streptococcus pneumoniae, ATCC49619, 24 h, read-out: MIC S. pneuomiae
Method: as §1, §2, §3, §4, §5

[3] = system: Staphylococcus aureus (Smith) ATCC 19636; experiment: MIC determination, S. aureus; assay type: cell-based; details: S. aureus ATCC 19636, 17 h; for MIC: Staphylococcus aureus, ATCC19636
Method: as §1, §2, §3, §4, §5

[4] = system: S. cerevisiae Δpdr5; experiment: MIC determination, yeast; assay type: cell-based; details: YPD, 30 degrees Celsius
Method: as §1, §3
Yeast cultures are started from a fresh colony into YPD media and then diluted to OD of 0.002. Diluted yeast is added to compound plates as bacteria but incubated at 30 degrees Celsius for 17 h. Controls are amphotericin B and voriconazole.
as §4, §5

[5] = system: Enterococcus faecalis ATCC 29212; experiment: MIC determination, E. faecalis; assay type: cell-based; details: ATCC 29212, 24 h
Method: as §1, §2, §3, §4, §5

[6] = system: Van-intermediate E. faecalis ATCC 51299 / Van-resistant E. faecalis ATCC 700221; experiment: MIC determination, VIRE/VRE; assay type: cell-based, Enterococcus faecalis; details: ATCC 51299 / 700221, 24 h
Method: The MICs were determined using a broth micro-dilution assay in accordance with that recommended by the National Committee for Clinical Laboratory Standards (NCCLS). The final bacterial inoculate contained approximately 5×10^5 cfu/mL and the plates were incubated at 35° C. for 18 h in ambient air (Streptococci in 5% CO2). The MIC was defined as the lowest drug concentration that prevented visible growth.
as §1, §2, §3, §4, §5

[7] = system: Penicillin-res. S. pneumonia ATCC 700671; experiment: MIC determination, PRSP; assay type: cell-based, Streptococcus pneumonia; details: ATCC 700671, 24 h; for MIC: Streptococcus pneumoniae
Method: as §1, §2, §3, §4, §5

MIC ([5]; Enterococcus faecalis, ATCC29212)	Compound	MIC MRSA [1]	MIC S. pneuomiae [2]	MIC S. aureus [3]	MIC S. cerevisiae Δpdr5 [4]	MIC E. faecalis [5]	MIC VIRE/VRE [6]	MIC PRSP [7]	MIC [1]	MIC [2]	MIC [3]	MIC [7]
–	CC(O)C1ON(Cc2ccccc2)C(C(=O)NCCc2c[nH]c3ccccc23)C1CO (stereo not drawn)	** (the MIC is 5-90 μg/mL)	* (the MIC is >90 μg/mL)	** (the MIC is 5-90 μg/mL)	** (the MIC is 5-90 μg/mL)	** (the MIC is 5-90 μg/mL)	** (the MIC is 5-90 μg/mL)	* (the MIC is >90 μg/mL)	–	–	–	–
–	Cc1ccc(C#Cc2ccc(CN3O[C@H]([C@@H](C)O)[C@H](CO)[C@@H]3CNCCc3c[nH]c4ccccc34)cc2)cc1.Cl	–	–	–	–	–	–	–	5 to 90 µg/mL	> 90 µg/mL	5 to 90 µg/mL	> 90 µg/mL
–	Cc1ccc(C#Cc2ccc(CN3OC4CNCC4C3C(=O)NCCc3c[nH]c4ccccc34)cc2)cc1 (stereo not drawn)	–	–	–	–	–	–	–	5 to 90 µg/mL (≈ 9.91 to 178 µM)	5 to 90 µg/mL (≈ 9.91 to 178 µM)	5 to 90 µg/mL (≈ 9.91 to 178 µM)	5 to 90 µg/mL (≈ 9.91 to 178 µM)
–	CC(O)C1ON(Cc2cccc(C#Cc3ccc(Cl)cc3)c2)C(C(=O)NCCc2c[nH]c3ccccc23)C1CO (stereo not drawn)	*** (the MIC is less than 5 μg/mL)	** (the MIC is 5-90 μg/mL)	*** (the MIC is less than 5 μg/mL)	** (the MIC is 5-90 μg/mL)	** (the MIC is 5-90 μg/mL)	** (the MIC is 5-90 μg/mL)	** (the MIC is 5-90 μg/mL)	–	–	–	–
–	Cc1ccc(C#Cc2ccc(CN3OC(C(C)O)C(CO)C3C(=O)NCCc3c[nH]c4ccccc34)cc2)cc1 (stereo not drawn) [drawing 205]	*** (the MIC is less than 5 μg/mL)	** (the MIC is 5-90 μg/mL)	*** (the MIC is less than 5 μg/mL)	** (the MIC is 5-90 μg/mL)	** (the MIC is 5-90 μg/mL)	** (the MIC is 5-90 μg/mL)	** (the MIC is 5-90 μg/mL)	–	–	–	–
–	CC(O)C1ON(Cc2ccc(CCc3ccc(Cl)cc3)cc2)C(C(=O)NCCc2c[nH]c3ccccc23)C1CO (stereo not drawn)	** (the MIC is 5-90 μg/mL)	** (the MIC is 5-90 μg/mL)	** (the MIC is 5-90 μg/mL)	–	–	–	** (the MIC is 5-90 μg/mL)	–	–	–	–
5 to 90 µg/mL (≈ 9.06 to 163 µM)	Cc1ccc(C#Cc2ccc(CN3O[C@H]([C@@H](C)O)[C@H](CO)[C@@H]3C(=O)NCCCNC(=O)OC(C)(C)C)cc2)cc1	–	–	–	–	–	–	–	5 to 90 µg/mL (≈ 9.06 to 163 µM)	–	5 to 90 µg/mL (≈ 9.06 to 163 µM)	5 to 90 µg/mL (≈ 9.06 to 163 µM)
–	CC(=O)c1ccc(-c2ccc(CN3OC(C(C)O)C(CO)C3C(=O)NCCc3c[nH]c4ccccc34)cc2)cc1 (stereo not drawn)	** (the MIC is 5-90 μg/mL)	–	** (the MIC is 5-90 μg/mL)	–	** (the MIC is 5-90 μg/mL)	–	* (the MIC is >90 μg/mL)	–	–	–	–
–	CC(O)C1ON(Cc2ccc(C=Cc3ccc(C(F)(F)F)cc3)cc2)C(C(=O)NCCc2c[nH]c3ccccc23)C1CO (stereo not drawn)	** (the MIC is 5-90 μg/mL)	** (the MIC is 5-90 μg/mL)	** (the MIC is 5-90 μg/mL)	–	–	–	** (the MIC is 5-90 μg/mL)	–	–	–	–
–	CCOCCCNC(=O)[C@H]1[C@@H](CO)[C@@H]([C@@H](C)O)ON1Cc1ccc(C#Cc2ccc(C)cc2)cc1	–	–	–	–	–	–	–	–	5 to 90 µg/mL (≈ 10.4 to 187 µM)	5 to 90 µg/mL (≈ 10.4 to 187 µM)	5 to 90 µg/mL (≈ 10.4 to 187 µM)
–	Cc1ccc(C#Cc2ccc(CN3OC(C(C)O)C(CO)C3C(=O)NCCc3cnc[nH]3)cc2)cc1 (stereo not drawn)	** (the MIC is 5-90 μg/mL)	* (the MIC is >90 μg/mL)	* (the MIC is >90 μg/mL)	–	–	–	–	–	–	–	–
–	CC(O)C1ON(Cc2ccc(C=Cc3ccccc3)cc2)C(C(=O)NCCc2c[nH]c3ccccc23)C1CO (stereo not drawn) [drawing 219]	** (the MIC is 5-90 μg/mL)	** (the MIC is 5-90 μg/mL)	*** (the MIC is less than 5 μg/mL)	–	* (the MIC is >90 μg/mL)	* (the MIC is >90 μg/mL)	** (the MIC is 5-90 μg/mL)	–	–	–	–
–	CC(O)C1ON(CC2CCCCC2)C(C(=O)NCCc2c[nH]c3ccccc23)C1CO (stereo not drawn)	* (the MIC is >90 μg/mL)	–	** (the MIC is 5-90 μg/mL)	–	** (the MIC is 5-90 μg/mL)	–	* (the MIC is >90 μg/mL)	–	–	–	–
–	Cc1ccc(C=Cc2ccc(CN3OC(C(C)O)C(CO)C3C(=O)NCCc3c[nH]c4ccccc34)cc2)cc1 (stereo not drawn)	** (the MIC is 5-90 μg/mL)	** (the MIC is 5-90 μg/mL)	** (the MIC is 5-90 μg/mL)	–	–	–	** (the MIC is 5-90 μg/mL)	–	–	–	–
–	Cc1ccc(CCc2ccc(CN3OC(C(C)O)C(CO)C3C(=O)NCCc3c[nH]c4ccccc34)cc2)cc1 (stereo not drawn)	*** (the MIC is less than 5 μg/mL)	** (the MIC is 5-90 μg/mL)	*** (the MIC is less than 5 μg/mL)	–	–	–	** (the MIC is 5-90 μg/mL)	–	–	–	–
–	Cc1ccc(C#Cc2cccc(CN3OC(C(C)O)C(CO)C3C(=O)NCCc3c[nH]c4ccccc34)c2)cc1 (stereo not drawn)	*** (the MIC is less than 5 μg/mL)	** (the MIC is 5-90 μg/mL)	*** (the MIC is less than 5 μg/mL)	** (the MIC is 5-90 μg/mL)	** (the MIC is 5-90 μg/mL)	** (the MIC is 5-90 μg/mL)	** (the MIC is 5-90 μg/mL)	–	–	–	–
–	CC(O)C1ON(Cc2ccc(C#Cc3ccc(Cl)cc3)cc2)C(C(=O)NCCc2c[nH]c3ccccc23)C1CO (stereo not drawn)	*** (the MIC is less than 5 μg/mL)	** (the MIC is 5-90 μg/mL)	*** (the MIC is less than 5 μg/mL)	** (the MIC is 5-90 μg/mL)	** (the MIC is 5-90 μg/mL)	** (the MIC is 5-90 μg/mL)	** (the MIC is 5-90 μg/mL)	–	–	–	–
–	CC(O)C1ON(Cc2ccc(C=Cc3ccc(Cl)cc3)cc2)C(C(=O)NCCc2c[nH]c3ccccc23)C1CO (stereo not drawn)	*** (the MIC is less than 5 μg/mL)	** (the MIC is 5-90 μg/mL)	*** (the MIC is less than 5 μg/mL)	* (the MIC is >90 μg/mL)	*** (the MIC is less than 5 μg/mL)	* (the MIC is >90 μg/mL)	** (the MIC is 5-90 μg/mL)	–	–	–	–
